Experimental findings from US8759051B2, “Control of contaminant microorganisms in fermentation processes with peroxygen-releasing compounds” (E I du Pont de Nemours and Company, priority 2010, dated 2014) are described below.

Each structure is given as a SMILES string. Values joined by “and” are separate entries in the source; they are usually repeats but may differ in a detail not shown here. Equal values may be shown once. Read-outs that look alike come from different tables or passages of the source. Some results are limits rather than exact numbers.

A short description of series [1]: Stability of peroxygen-releasing compounds during storage at 40° C., iodometric titration of hydrogen peroxide (Example 4). It counts as physicochemical. The protocol: A dry oven was used to store samples of the peroxygen-releasing compounds at 40° C. The oven was allowed to equilibrate overnight. Two-gram duplicate samples of each of the following peroxygen-releasing compounds were dispensed into aluminum weighing dishes: sodium percarbonate (Alfa Aesar, Ward Hill, Mass.), sodium percarbonate FB 400 (Solvay Chemicals, Inc., Houston, Tex.), sodium percarbonate FB […] (Solvay Chemicals, Inc.), calcium peroxide (Sigma-Aldrich Co., St. […] After six days, samples were analyzed for levels of hydrogen peroxide using standard iodometric titration.

The test system of series [2] is lactic acid bacteria (LAB). In words: Inactivation of LAB in molasses at pH 4.2 and 5.4 (Examples 2 and 3). Type of series: cell-based. The protocol:
Molasses (B&G Foods, Inc., Roseland, N.J.) was diluted 1 to 3.1 with water and sterilized as in Example 1. The prepared molasses was then divided into two lots and pH-adjusted using sulfuric acid to approximately pH 4.2 and 5.4, respectively. Cultures of LAB were prepared as in Example 1 and inoculated into the molasses to give approximately 1×10^6 CFU/ml. Sodium percarbonate (Alfa Aesar, Ward Hill, Mass.) was added to give 250, 500, and 750 ppm. […] Levels of LAB were enumerated by dilution and plating onto the surface of MRS agar followed by incubation at 32° C. LAB were enumerated at approximately 2 and 24 hours after the addition of sodium percarbonate.
Molasses was prepared as above and adjusted to pH 4.2 and 5.4 using sulfuric acid. Cultures of lactic acid bacteria were prepared as indicated in Example 1 and inoculated into the molasses to give approximately 10E6 CFU/ml. Levels of bacteria were confirmed by plating serial dilutions of the inoculated molasses onto the surface of MRS agar plates as in Example 1. Calcium peroxide was added at the levels indicated. Bacterial levels were enumerated at 2 and 24 hours following addition as described above.

Series [3] concerns lactic acid bacteria (LAB). Put plainly: Inactivation of LAB in dilute molasses at pH 5.0 in the presence of yeast Ethanol Red (Example 5). Type of series: cell-based. The protocol:
Cultures of lactic acid bacteria (LAB) were prepared as in Example 1 above. Molasses was diluted 1:3.1 with water as in previous examples. The fermenting yeast Ethanol Red was cultured as in example 1. Populations of lactic acid bacteria and yeasts were determined by dilution plating on MRS agar and YPD agar, respectively. Overnight cultures of LAB were mixed to prepare a bacterial cocktail and inoculated into molasses (diluted 1:3.1 with water) adjusted to pH 5.0 to give approximately 6.11 Log CFU/ml. Cultures of yeasts were added to each tube at a concentration of approximately 6.80 Log CFU/ml. […] The amount of UHP added was 1450 ppm. The amount of percarbonate added was 1812 ppm. Tubes were then incubated at 32° C. with agitation. […] Amphotericin inhibits the growth of yeast, facilitating enumeration of bacteria only.

[4] abbreviates: before storage, duplicate samples.
Where [5] appears, read: storage at 40° C. in dry oven, day 6, duplicate samples.
The mark [6] stands for this setting: storage at 40° C. in dry oven, day 14, duplicate samples.

For the compound `[Ca+2].[O-][O-]` [Calcium peroxide, calcium peroxide], the “% Remaining H2O2 Day 0” value in series [1] was 100%. The “% Remaining H2O2 Day 6” value in series [1] is on record as 97%. In series [1], the “% Remaining H2O2 Day 14” value is reported as 97%. For the same compound, in series [1] (setting [4]), the “% H2O2 Day 0” value is 34.71% and 34.73%. The “% H2O2 Day 6” value in series [1] (setting [5]) was 33.66% and 33.60%. Moreover, in series [1] (setting [6]), the “% H2O2 Day 14” value is 33.62% and 33.57%. Further, the “relative hydrogen peroxide retained during storage” value in series [1] (storage at 40° C., day not given) amounted to 97%. For the same compound, the “CFU/ml LAB at hour indicated” value in series [2] (molasses at pH 4.2, 197 ppm (69 ppm as H2O2), hour 2) is reported as 2.33 × 10^6 CFU/ml; in series [2] (molasses at pH 4.2, 197 ppm (69 ppm as H2O2), hour 24), 4.25 × 10^6 CFU/ml; in series [2] (molasses at pH 4.2, 393 ppm (138 ppm as H2O2), hour 2), 1.22 × 10^6 CFU/ml; in series [2] (molasses at pH 4.2, 393 ppm (138 ppm as H2O2), hour 24), 1.00 × 10^1 CFU/ml; in series [2] (molasses at pH 4.2, 590 ppm (207 ppm as H2O2), hour 2), 4.70 × 10^5 CFU/ml; in series [2] (molasses at pH 4.2, 590 ppm (207 ppm as H2O2), hour 24), below 10 CFU/ml. Moreover, the “CFU/ml LAB at hour indicated” value in series [2] (molasses at pH 5.4, 197 ppm (69 ppm as H2O2), hour 2) is reported as 8.90 × 10^5 CFU/ml; in series [2] (molasses at pH 5.4, 197 ppm (69 ppm as H2O2), hour 24) it was 4.00 × 10^4 CFU/ml; in series [2] (molasses at pH 5.4, 393 ppm (138 ppm as H2O2), hour 2), 5.00 × 10^2 CFU/ml; in series [2] (molasses at pH 5.4, 393 ppm (138 ppm as H2O2), hour 24), “below the detection limit”; in series [2] (molasses at pH 5.4, 393 ppm (138 ppm as H2O2), hour 24, listed as Calcium percarbonate), below 10 CFU/ml; in series [2] (molasses at pH 5.4, 590 ppm (207 ppm as H2O2), hour 2), 8.0×10^4 CFU/ml. Moreover, the “CFU/ml LAB at hour indicated” value is on record as 8.00 × 10^4 CFU/ml in series [2] (molasses at pH 5.4, 590 ppm (207 ppm as H2O2), hour 2, listed as Calcium percarbonate) and below 10 CFU/ml in series [2] (molasses at pH 5.4, 590 ppm (207 ppm as H2O2), hour 24). The “reductions in LAB” value in series [2] (molasses pH 4.2, 197 ppm calcium peroxide, 2 hour) is “only slight reductions”; in series [2] (molasses pH 4.2, 393 ppm calcium peroxide, 2 hour), “only slight reductions”. The “reduction of LAB” value in series [2] (molasses pH 4.2, 197 ppm calcium peroxide, 24 hours) was “approximately 1 log”. The “reduction of the population of LAB” value in series [2] (molasses pH 4.2, 393 ppm calcium peroxide, 24 hours) is given as “more than 6 log units”; in series [2] (molasses pH 4.2, 590 ppm calcium peroxide, 2 hour), “approximately 1 log”; in series [2] (molasses pH 4.2, 590 ppm calcium peroxide, 24 hours) it was “more than 6 log units”.

As for `NC(N)=O.OO` [Urea hydrogen peroxide, urea hydrogen peroxide, reference compound], in series [1] (setting [4]), the “% H2O2 Day 0” value was 34.53% and 34.56%; the “% Remaining H2O2 Day 0” value was determined as 100%. Besides, the “% H2O2 Day 0” value in series [1] (before storage, duplicate samples, listed as urea hydrogen peroxide) is given as “approximately 35%”. In series [1] (setting [5]), the “% H2O2 Day 6” value was 0.24% and 0.25%; the “% Remaining H2O2 Day 6” value is given as below 1%. Moreover, the “% H2O2 Day 6” value in series [1] (storage at 40° C. in dry oven, day 6, duplicate samples, listed as urea hydrogen peroxide) is “below 1%”. Moreover, in series [1] (setting [6]), the “% H2O2 Day 14” value was found to be 0.08% and the “% Remaining H2O2 Day 14” value is 0%. The “stability during storage (in words)” value in series [1] (storage at 40° C., 6 and 14 days) is recorded as “not stable during storage”. In series [3] (500 ppm as H2O2, 2 hours of incubation at 32° C., in presence of yeast), the “reduction of the population of LAB” value is 3 log units. Moreover, the “Log CFU/mL of LAB at hour indicated” value in series [3] (500 ppm as H2O2, hour 2, molasses pH 5.0, yeast approx. 6.80 Log CFU/ml, 32° C.) amounted to 3.36 Log CFU/mL.

`[Mg+2].[O-][O-]` [Magnesium peroxide, magnesium peroxide]: in series [1], the “% Remaining H2O2 Day 0” value is on record as 100% and the “% Remaining H2O2 Day 6” value is 100%. In addition, the “% H2O2 Day 0” value in series [1] (setting [4]) was 10.66% and 10.72%. Besides, in series [1] (setting [5]), the “% H2O2 Day 6” value is 10.66% and 10.68%. Besides, the “% H2O2 Day 14” value in series [1] (setting [6]) is 10.64% and 10.65%.

In the case of `O=C([O-])[O-].O=C([O-])[O-].OO.OO.OO.[Na+].[Na+].[Na+].[Na+]` [Sodium percarbonate (FB 400C), sodium percarbonate], in series [1], the “% Remaining H2O2 Day 0” value came out at 100% and the “% Remaining H2O2 Day 14” value is on record as 96%. For the same compound, the “% H2O2 Day 0” value in series [1] (setting [4]) is 26.34% and 26.25%. In addition, in series [1] (setting [5]), the “% H2O2 Day 6” value is 25.37% and 25.45%. In series [1] (setting [6]), the “% H2O2 Day 14” value was 25.35% and 25.27%.

In the case of `O=C([O-])[O-].O=C([O-])[O-].OO.OO.OO.[Na+].[Na+].[Na+].[Na+]` [Sodium percarbonate (FB 400), sodium percarbonate], in series [1], the “% Remaining H2O2 Day 0” value came out at 100%, the “% Remaining H2O2 Day 6” value amounted to 96% and the “% Remaining H2O2 Day 14” value stood at 96%. Also, the “% H2O2 Day 0” value in series [1] (setting [4]) is 23.81% and 23.66%. Moreover, in series [1] (setting [5]), the “% H2O2 Day 6” value is 22.80% and 22.74%. Further, the “% H2O2 Day 14” value in series [1] (setting [6]) was 22.80% and 22.67%.
